Results as given in patent US5071875A (Northwestern University, priority 1989, dated 1991).

Assays:
melatonin receptor [1] = test: Inhibition of 2-[125I]iodomelatonin binding to chicken retinal membranes; settings: for IC50: read-out: IC50, inhibition of 2-[125I]iodomelatonin binding to chicken retinal membranes, 0° C., 5 hr, in the dark
Protocol: Dubocovich, et al., Proc. Nat'l.
The compounds to be tested were dissolved in 1 mM HCl with 0.1% bovine serum albumin. Binding was initiated by addition of 220-μl aliquots of retinal membranes resuspended in the Tris-HCl buffer to tubes containing 20 μl of test compound or vehicle, and radioligand. […] Reactions were terminated by addition of 5 ml of ice-cold Tris-HCl buffer, and the contents were immediately filtered through glass-fiber filters (Schleicher & Schuell no. 30) soaked in 0.5% (vol/vol) polyethylenimine solution. Each filter was washed twice with 5 ml of the cold buffer. Radioactivity was determined in a gamma counter.

melatonin receptor [2] = biological target: T1, melatonin receptor (Oryctolagus cuniculus, UniProt G1SUP2); test: Inhibition of calcium-dependent [3H]dopamine release from rabbit retina (melatonin agonist assay); assay type: cell-based; settings: for inhibition at 1 µM: 1 μM concentration of test compound, read-out: % Maximal Inhibition of [3H]dopamine release; for IC50: compound added before S2, S-sulpiride 0.1 μM present
T1 construct: Typically, the rabbit retina tissues preincubation with [^3 H]-dopamine for 10 minutes; from tissue; host or cells: rabbit retina (superfused retinal tissue)
T1 sequence (G1SUP2 1-362): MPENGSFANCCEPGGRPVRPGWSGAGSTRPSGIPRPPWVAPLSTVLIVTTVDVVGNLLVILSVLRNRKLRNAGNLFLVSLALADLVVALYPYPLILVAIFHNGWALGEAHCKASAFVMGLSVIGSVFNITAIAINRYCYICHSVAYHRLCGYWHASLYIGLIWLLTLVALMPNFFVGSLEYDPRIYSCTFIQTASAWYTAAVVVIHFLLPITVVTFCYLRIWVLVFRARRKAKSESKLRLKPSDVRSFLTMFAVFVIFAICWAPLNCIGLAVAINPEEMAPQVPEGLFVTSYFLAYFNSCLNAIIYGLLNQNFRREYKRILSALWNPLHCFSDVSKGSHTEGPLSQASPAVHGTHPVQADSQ
Protocol: Accordingly, all experiments were run in the presence of S-sulpiride (0.1 μM) to block D-2 dopamine autoreceptors present in the dopamine amacrine cells of retina.
Thus, the lower the IC50, the greater the agonistic activity.
Assays were performed as described in Dubocovich, J. Pharm. […] Retinal tissues are incubated for 10 min at 37° C. in the presence of 0.1 μM [^3 H]dopamine. The tissue was then washed in Krebs' solution at 37° C. and transferred to individual cylindrical plastic tubes having a thin nylon mesh on the bottom. These plastic tubes were then transferred to individual glass superfusion chambers containing platinum electrodes 30 mm apart. The tissue samples are superfused with Krebs' solution, starting at time equal zero until a leveling off of the spontaneous release of radioactivity occurred (about 60 mins). A time equal 60 mins S1 is applied.
Tritium release, i.e., release of [^3 H]dopamine, was elicited by field stimulation at 3 Hz, 20 mA, 2 msec duration. Field stimulations were applied in each experiment at either 60 (S1) or 100 (S2), min after the end of the incubation with [^3 H]dopamine. Samples of the superfusate were collected before, during, and after the period of stimulation. At the end of each experiment, the retinal tissue contained in each chamber was solubilized and the tritium content remaining in the retinal tissue was determined by liquid scintillaton counting. [drawing 8]
The inhibition of [^3 H]dopamine overflow (the percentage of total tissue radioactivity released by field stimulation above the spontaneous release levels, expressed as the ratio S2 /S1) is plotted as a function of the molar concentrations of the test compound (logarithmic scale).

melatonin receptor [3] = biological target: T1, melatonin receptor; test: Antagonism of melatonin-induced inhibition of [3H]dopamine release from rabbit retina; assay type: cell-based; settings: for shift of the melatonin concentration effect curve: 0.1 μM and 1 μM of test compound, compared with melatonin alone
Protocol: In this example, the test compound is added before the first period of electrical stimulation (S1) and remains present until the end of the experiment.
Typically, the rabbit retina tissues preincubation with [^3 H]-dopamine for 10 minutes is followed by a superfusion with Krebs solution at time equal zero. At time equal 20 minutes the test compound of interest is added. At time equal 60 minutes S1 is applied.
The ratio S2 /S1 can be plotted as a function of the molar concentrations of the test compound used (logarithmic scale).

melatonin receptor [4] = biological target: T1, melatonin receptor; settings: cited from earlier work
melatonin receptor [5] = biological target: T1, melatonin receptor; settings: cited from earlier work; remark: listed apart in the source
melatonin receptor [6] = settings: cited from earlier work
frog skin = settings: cited from earlier work
[7] = test compound 0.1 μM, melatonin 1 nM
[8] = test compound 0.1 μM, melatonin 10 nM
[9] = test compound 1 μM, melatonin 1 nM
[10] = test compound 1 μM, melatonin 10 nM

Question: Which “activity in competitively inhibiting the binding of 2-[125I]iodomelatonin to the melatonin binding site (in words)” value (melatonin receptor [1]) does the source give for `COc1cccc2c1CC(NC(C)=O)CC2` (stereo not shown) [AH 001, 8-methoxy 2-acetamido-tetralin] here?
Answer: high activity

Question: For `CCC(=O)NC1CCc2cccc(OC)c2C1` (stereo not shown) [AH 002, 8-methoxy-2-propionamidotetralin], which “activity in competitively inhibiting the binding of 2-[125I]iodomelatonin to the melatonin binding site (in words)” value (melatonin receptor [1]) is on record?
Answer: high activity

Question: Which inhibition at 1 µM (melatonin receptor [2]) does the source give for `CC(=O)NC1CCc2ccccc2C1` (stereo not shown) [AH 005, 2-acetamidotetralin] here?
Answer: 50%

Question: And the IC50 (melatonin receptor [2])?
Answer: 52.2 nM

Question: What about the IC50 (melatonin receptor [1]) of the same compound?
Answer: 20000 nM

Question: For `CCC(=O)NC1CCc2ccccc2C1` (stereo not shown) [AH 006, 2-propionamido-tetralin], which inhibition at 1 µM (melatonin receptor [2]) is on record?
Answer: 70%

Question: And the IC50 (melatonin receptor [2])?
Answer: 8.13 nM

Question: What about the IC50 (melatonin receptor [1]) of the same compound?
Answer: 13000 nM

Question: Which results are given for `COc1cccc2c1CC(NC(=O)c1ccccc1)CC2` (stereo not shown) [AH 007, 8-methoxy-2-benzoylamido-tetralin]?
Answer: inhibition at 1 µM (melatonin receptor [2]): 40%; IC50 (melatonin receptor [2]): 10 nM; IC50 (melatonin receptor [1]): > 10000 nM

Question: Which IC50 (melatonin receptor [1]) does the source give for `COc1ccc2c(c1)CC(NC(C)=O)CC2` (stereo not shown) [AH 008, 7-methoxy-2-acetamido-tetralin] here?
Answer: > 10000 nM

Question: Which results are given for `O=C(CCl)NC1CCc2ccccc2C1` (stereo not shown) [AH 011, 2-chloroacetamido-tetralin]?
Answer: inhibition at 1 µM (melatonin receptor [2]): 80%; IC50 (melatonin receptor [2]): 1.3 nM

Question: For `CCCC(=O)NC1CCc2cccc(OC)c2C1` (stereo not shown) [AH 013, 8-methoxy-2-n-butyramidotetralin], which “melatonin agonist activity (in words)” value (melatonin receptor [2]) is on record?
Answer: melatonin agonists

Question: What about the inhibition at 1 µM (melatonin receptor [2]) of the same compound?
Answer: 80%

Question: And the IC50 (melatonin receptor [2])?
Answer: 1.18 nM

Question: And the “activity in competitively inhibiting the binding of 2-[125I]iodomelatonin to the melatonin binding site (in words)” value (melatonin receptor [1])?
Answer: high activity

Question: And the IC50 (melatonin receptor [1])?
Answer: 257 nM

Question: Which inhibition at 1 µM (melatonin receptor [2]) does the source give for `COc1cccc2c1CC(NC(=O)C(C)C)CC2` (stereo not shown) [AH 014, 8-methoxy-2-iso-butyramido-tetralin] here?
Answer: 80%

Question: And the IC50 (melatonin receptor [2])?
Answer: 7.94 nM

Question: And the IC50 (melatonin receptor [1])?
Answer: 4620 nM

Question: For `COc1cccc2c1CC(NC(=O)C1CC1)CC2` (stereo not shown) [AH 015, 8-methoxy-2-cyclopropanecarbonylamido-tetralin], which “melatonin agonist activity (in words)” value (melatonin receptor [2]) is on record?
Answer: melatonin agonists

Question: And the inhibition at 1 µM (melatonin receptor [2])?
Answer: 80%

Question: What about the IC50 (melatonin receptor [2]) of the same compound?
Answer: 2.51 nM

Question: And the IC50 (melatonin receptor [1])?
Answer: 2940 nM

Question: Which inhibition at 1 µM (melatonin receptor [2]) does the source give for `COc1cccc2c1CC(NC(=O)Cc1ccccc1)CC2` (stereo not shown) [AH 016, 8-methoxy-2-phenylacetamido-tetralin] here?
Answer: 0%

Question: What about the IC50 (melatonin receptor [2]) of the same compound?
Answer: > 1000 nM

Question: For `COc1cccc2c1CC(NC(=O)CCl)CC2` (stereo not shown) [AH 017, 8-methoxy-2-chloroacetamidotetralin], which inhibition at 1 µM (melatonin receptor [2]) is on record?
Answer: 75%

Question: What about the IC50 (melatonin receptor [2]) of the same compound?
Answer: 0.063 nM

Question: For `COc1cccc2c1CCC(NC(C)=O)C2` (stereo not shown) [AH 018, 5-methoxy-2-acetamido-tetralin], which IC50 (melatonin receptor [1]) is on record?
Answer: 16000 nM

Question: With `O=C(NC1CCc2ccccc2C1)c1ccccc1` (stereo not shown) [AH 019, 2-benzoylamido-tetralin] as the compound, how does the IC50 (melatonin receptor [1]) read?
Answer: > 10000 nM

Question: With `CCCC(=O)NC1CCc2ccccc2C1` (stereo not shown) [AH 020, 2-butyramido-tetralin] as the compound, how does the IC50 (melatonin receptor [1]) read?
Answer: 2910 nM

Question: For `CC(=O)NC1Cc2ccccc2C(c2ccccc2)C1` (stereo not shown) [AH 023, 4-phenyl-2-acetamidotetralin], which IC50 (melatonin receptor [2]) is on record?
Answer: > 1000 nM

Question: And the “antagonism of melatonin-induced inhibition of [3H]dopamine release (in words)” value (melatonin receptor [3])?
Answer: antagonize the melatonin-induced inhibition of [^3 H]dopamine release

Question: What about the “shift of the melatonin concentration effect curve” value (melatonin receptor [3]) of the same compound?
Answer: shift to the right

Question: What about the S2/S1 (melatonin receptor [3]; test compound 0.01 μM, melatonin 0.1 nM) of the same compound?
Answer: 0.69 ± 0.11

Question: What about the S2/S1 (melatonin receptor [3]; test compound 0.01 μM, melatonin 1 nM) of the same compound?
Answer: 0.30 ± 0.04

Question: And the S2/S1 (melatonin receptor [3]; [7])?
Answer: 0.73 ± 0.04

Question: And the S2/S1 (melatonin receptor [3]; [8])?
Answer: 0.37 ± 0.06

Question: What about the S2/S1 (melatonin receptor [3]; test compound 1 μM, melatonin 0.1 nM) of the same compound?
Answer: 1.02 ± 0.03

Question: And the S2/S1 (melatonin receptor [3]; [9])?
Answer: 0.92 ± 0.07

Question: What about the S2/S1 (melatonin receptor [3]; [10]) of the same compound?
Answer: 0.69 ± 0.03

Question: What about the “activity in competitively inhibiting the binding of 2-[125I]iodomelatonin to the melatonin binding site (in words)” value (melatonin receptor [1]) of the same compound?
Answer: high activity

Question: What about the IC50 (melatonin receptor [1]) of the same compound?
Answer: 630 nM

Question: Which IC50 (melatonin receptor [2]) does the source give for `CCC(=O)NC1Cc2ccccc2C(c2ccccc2)C1` (stereo not shown) [AH 024, 4-phenyl-2-propionamido-tetralin] here?
Answer: > 1000 nM

Question: What about the “antagonism of melatonin-induced inhibition of [3H]dopamine release (in words)” value (melatonin receptor [3]) of the same compound?
Answer: antagonize the melatonin-induced inhibition of [^3 H]dopamine release

Question: And the “shift of the melatonin concentration effect curve” value (melatonin receptor [3])?
Answer: shift to the right

Question: And the S2/S1 (melatonin receptor [3]; test compound 0.1 μM, melatonin 0.1 nM)?
Answer: 1.01 ± 0.07

Question: And the S2/S1 (melatonin receptor [3]; [7])?
Answer: 0.76 ± 0.01

Question: And the S2/S1 (melatonin receptor [3]; [8])?
Answer: 0.25 ± 0.01

Question: What about the S2/S1 (melatonin receptor [3]; [9]) of the same compound?
Answer: 0.91 ± 0.06

Question: What about the S2/S1 (melatonin receptor [3]; [10]) of the same compound?
Answer: 0.61 ± 0.01

Question: And the “activity in competitively inhibiting the binding of 2-[125I]iodomelatonin to the melatonin binding site (in words)” value (melatonin receptor [1])?
Answer: high activity

Question: What about the IC50 (melatonin receptor [1]) of the same compound?
Answer: 250 nM

Question: For `CC(=O)NC1Cc2ccccc2C(Cc2ccccc2)C1` (stereo not shown) [AH 025, 4-benzyl-2-acetamidotetralin], which “melatonin agonist activity (in words)” value (melatonin receptor [2]) is on record?
Answer: melatonin agonists

Question: What about the inhibition at 1 µM (melatonin receptor [2]) of the same compound?
Answer: 70%

Question: And the IC50 (melatonin receptor [2])?
Answer: 4 nM

Question: And the “activity in competitively inhibiting the binding of 2-[125I]iodomelatonin to the melatonin binding site (in words)” value (melatonin receptor [1])?
Answer: high activity

Question: And the IC50 (melatonin receptor [1])?
Answer: 400 nM

Question: With `O=C(CCl)NC1Cc2ccccc2C(c2ccccc2)C1` (stereo not shown) [AH 026, 4-phenyl-2-chloroacetamido-tetralin] as the compound, how does the IC50 (melatonin receptor [2]) read?
Answer: > 1000 nM

Question: With `CCC(=O)NC1Cc2ccccc2C(Cc2ccccc2)C1` (stereo not shown) [AH 027, 4-benzyl-2-propionamido-tetralin] as the compound, how does the “melatonin agonist activity (in words)” value (melatonin receptor [2]) read?
Answer: melatonin agonists

Question: And the inhibition at 1 µM (melatonin receptor [2])?
Answer: 65%

Question: What about the IC50 (melatonin receptor [2]) of the same compound?
Answer: 13 nM

Question: And the “activity in competitively inhibiting the binding of 2-[125I]iodomelatonin to the melatonin binding site (in words)” value (melatonin receptor [1])?
Answer: high activity

Question: What about the IC50 (melatonin receptor [1]) of the same compound?
Answer: 790 nM

Question: For `CC(=O)NC1CC(Cc2ccccc2)c2ccccc2C1=O` (stereo not shown) [AH 028, 2-Acetamido-4-benzyl-1-tetralone], which inhibition at 1 µM (melatonin receptor [2]) is on record?
Answer: 60%

Question: And the IC50 (melatonin receptor [2])?
Answer: 16 nM

Question: And the IC50 (melatonin receptor [1])?
Answer: 25000 nM

Question: With `O=C(CCl)NC1Cc2ccccc2C(Cc2ccccc2)C1` (stereo not shown) [AH 029, 4-benzyl-2-chloroacetamido-tetralin] as the compound, how does the inhibition at 1 µM (melatonin receptor [2]) read?
Answer: 70%

Question: What about the IC50 (melatonin receptor [2]) of the same compound?
Answer: 10 nM

Question: With `CC(=O)NCCc1c(Cc2ccccc2)[nH]c2ccccc12` [Luzindole, 2-benzyl-N-acetyltryptamine] as the compound, how does the “antagonism of the ability of melatonin to inhibit [3H]dopamine release” value (melatonin receptor [4]) read?
Answer: antagonize the ability of melatonin to inhibit [^3 H]dopamine release in a competitive fashion

Question: What about the “effect on spontaneous outflow and calcium-dependent release of [3H]dopamine” value (melatonin receptor [5]; concentrations up to 10 μM, compound alone) of the same compound?
Answer: does not modify

Question: What does the source list for `CC(=O)NCCc1c[nH]c2ccccc12` [N-acetyltryptamine]?
Answer: melatonin receptor activity in rabbit retina (in words) (melatonin receptor [5]): partial melatonin agonist; melatonin receptor activity in chicken retina (in words) (melatonin receptor [6]): competitive melatonin receptor antagonist; effect on melatonin-induced lightening of α-MSH-induced darkening of frog skin (frog skin): antagonize the melatonin-induced lightening
